Like-named read-outs stand apart in the source and are kept apart here.
Legend:
IKKβ = target: T1, IKKβ (Homo sapiens, UniProt O14920); assay: in-house DELFIA kinase assay, IKKβ; type: biochemical
T1 sequence (O14920 1-756): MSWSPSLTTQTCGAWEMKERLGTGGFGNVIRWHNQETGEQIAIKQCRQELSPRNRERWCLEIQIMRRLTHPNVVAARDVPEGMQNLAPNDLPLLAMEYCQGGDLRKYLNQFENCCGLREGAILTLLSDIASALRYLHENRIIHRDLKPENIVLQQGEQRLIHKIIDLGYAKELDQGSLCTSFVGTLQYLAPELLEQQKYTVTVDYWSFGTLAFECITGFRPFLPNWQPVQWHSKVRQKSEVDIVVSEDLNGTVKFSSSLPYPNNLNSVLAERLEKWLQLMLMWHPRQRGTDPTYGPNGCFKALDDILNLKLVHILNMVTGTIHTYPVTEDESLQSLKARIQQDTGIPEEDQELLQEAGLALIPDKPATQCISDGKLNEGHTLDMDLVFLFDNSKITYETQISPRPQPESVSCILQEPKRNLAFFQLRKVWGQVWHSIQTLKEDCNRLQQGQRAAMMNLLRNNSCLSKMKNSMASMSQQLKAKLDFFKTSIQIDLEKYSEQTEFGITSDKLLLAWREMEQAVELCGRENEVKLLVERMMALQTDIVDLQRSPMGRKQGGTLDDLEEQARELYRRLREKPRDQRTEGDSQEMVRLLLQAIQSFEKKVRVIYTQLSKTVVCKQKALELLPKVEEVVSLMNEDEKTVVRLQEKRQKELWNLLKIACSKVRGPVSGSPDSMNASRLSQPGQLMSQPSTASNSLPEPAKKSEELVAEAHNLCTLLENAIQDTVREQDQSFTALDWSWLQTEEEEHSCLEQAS

[1] = mouse hepatocyte clearance (cryopreserved pooled mouse CD1 hepatocytes); type: in vitro ADME; settings: mouse, hepatocytes; 1 μM; 0.5×10^6 cells/mL; 37° C.
Procedure: Pharmacokinetic studies were contracted to Sygnature Discovery Limited. Intrinsic clearance and half life were determined using cryopreserved pooled mouse CD1 hepatocytes. Test compounds were analysed at 1 μM in Williams Media E buffer (0.01 % DMSO) at a cell density of 0.5×10^6 cells mL^−1 . Cells were incubated at 37° C. for one hour with shaking and compound depletion was measured by LC-MS/MS at six timepoints (0.25, 5, 10, 20, 40, and 60 minutes).

CDK9 = CDK9 (Homo sapiens, UniProt P50750); assay: kinome profiling at 1 μM, CDK9; type: biochemical; settings: read-out: % inhibition of CDK9
Description: (§1) We profiled three compounds from the series across the kinome (FIG. 11). […] To identify the structural drivers for CDK inhibition, we obtained X-ray crystal structures of 5 y and 6 g SU1336 and SU1349 with CDK-2 (FIG. 12A) to potentially identify possible routes towards introducing selectivity for IKKα over the CDK enzymes as well as IKKβ. […] All three derivatives form complexes with CDK2 with the pyrrolo[2,3 -b]pyridine H-bonding to GK+3 (Leu 83 ) and the aminoindazole projected towards the G-loop (FIG. 12A), forming H-bonds with Glu 51 and Lys 33 at the back of the pocket. The adoption of the 4 SU1253 -type orientation, rather than the flipped pose observed in IKKα, is probably facilitated by Tr-stacking between the aminoindazole and the GK residue, which in the CDKs is Phe, rather than Met. […] For 6 g SU1349, the hydrophobic pendant benzyloxy group points out into solvent, but can form face-to-edge Tr-Tr interactions with Phe 82 and His 84 from the hinge. Exchanging the hydrophobic pendant benzyloxy group for the morpholinoethyl-containing substituent in 5 y SU1336 removes any direct interaction with these hinge residues, preferring to sit in a more solvent-exposed position, as befits a basic side chain that will be protonated at physiological pH (FIG. 12B).
Black, 4 SU1253; grey, 5 r SU1261; diagonal stripes, 6 g SU1349. […] All tested compounds (4 SU1253, 5 r SU1261 and 6 g SU1349 ) inhibited CDK5 and CDK9 with >80 %.

PRAK = target: T2, PRAK (Homo sapiens, UniProt Q8IW41); assay: kinome profiling at 1 μM, PRAK; type: biochemical
T2 sequence (Q8IW41 1-473): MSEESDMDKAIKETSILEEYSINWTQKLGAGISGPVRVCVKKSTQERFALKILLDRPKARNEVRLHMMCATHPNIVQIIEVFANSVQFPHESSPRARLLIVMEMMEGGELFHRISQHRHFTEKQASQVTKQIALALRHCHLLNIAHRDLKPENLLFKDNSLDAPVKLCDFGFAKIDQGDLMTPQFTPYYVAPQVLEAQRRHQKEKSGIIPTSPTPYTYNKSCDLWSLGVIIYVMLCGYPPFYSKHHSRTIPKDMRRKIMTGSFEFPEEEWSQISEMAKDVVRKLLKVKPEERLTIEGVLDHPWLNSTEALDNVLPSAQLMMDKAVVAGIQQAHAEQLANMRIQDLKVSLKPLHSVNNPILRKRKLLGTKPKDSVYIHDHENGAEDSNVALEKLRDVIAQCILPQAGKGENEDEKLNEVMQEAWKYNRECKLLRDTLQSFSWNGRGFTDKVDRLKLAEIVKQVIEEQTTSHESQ
Description: as §1

Chain of CDK9 (P50750 whole entry, species assumed): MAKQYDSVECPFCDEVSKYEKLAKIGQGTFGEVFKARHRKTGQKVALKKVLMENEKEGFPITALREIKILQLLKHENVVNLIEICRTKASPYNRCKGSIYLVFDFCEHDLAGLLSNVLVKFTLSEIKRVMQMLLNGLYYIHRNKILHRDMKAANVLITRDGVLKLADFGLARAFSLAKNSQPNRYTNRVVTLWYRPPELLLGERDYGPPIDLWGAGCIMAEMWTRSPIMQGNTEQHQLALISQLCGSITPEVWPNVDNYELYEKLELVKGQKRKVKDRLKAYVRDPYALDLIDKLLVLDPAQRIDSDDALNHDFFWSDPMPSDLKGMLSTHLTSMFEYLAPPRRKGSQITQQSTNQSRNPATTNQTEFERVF
Chain of CDK9 (O60563 whole entry partner, species assumed): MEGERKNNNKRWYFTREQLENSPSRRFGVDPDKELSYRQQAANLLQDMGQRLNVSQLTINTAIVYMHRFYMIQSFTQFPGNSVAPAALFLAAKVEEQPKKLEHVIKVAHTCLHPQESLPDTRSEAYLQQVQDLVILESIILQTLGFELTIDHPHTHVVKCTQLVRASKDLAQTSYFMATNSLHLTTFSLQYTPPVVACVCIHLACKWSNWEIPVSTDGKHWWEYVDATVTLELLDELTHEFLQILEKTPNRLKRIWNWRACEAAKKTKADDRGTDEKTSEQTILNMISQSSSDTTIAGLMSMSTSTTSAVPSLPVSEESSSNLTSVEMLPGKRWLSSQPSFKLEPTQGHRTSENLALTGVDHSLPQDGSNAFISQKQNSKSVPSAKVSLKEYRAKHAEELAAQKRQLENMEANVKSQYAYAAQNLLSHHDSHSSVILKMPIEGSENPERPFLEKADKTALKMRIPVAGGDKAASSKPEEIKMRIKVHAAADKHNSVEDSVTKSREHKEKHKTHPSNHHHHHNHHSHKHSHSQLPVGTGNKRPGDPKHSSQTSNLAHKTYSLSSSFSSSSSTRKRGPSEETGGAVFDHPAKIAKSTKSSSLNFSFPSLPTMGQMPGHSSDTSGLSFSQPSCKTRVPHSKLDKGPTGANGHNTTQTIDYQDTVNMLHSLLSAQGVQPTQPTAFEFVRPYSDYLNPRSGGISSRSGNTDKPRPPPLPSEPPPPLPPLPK

IKKβ inhibition, in words (IKKβ)	Ki (IKKβ)	hepatocyte CLint [1]	inhibition at 1 µM (CDK9; 1 μM)	inhibition at 1 µM (PRAK)	inhibition at 1 µM (CDK9)	SMILES	off-target inhibition of PRAK, in words (PRAK; compared with 5r SU1261)
lowest activity against IKKβ	0.68 µM	38 µL/min/1e6 cells	> 80%	> 80%		Nc1n[nH]c2ccc(-c3ccnc4[nH]c(-c5cccc(OCc6ccccc6)c5)cc34)cc12 [5r SU1261, 5-(2-(3-(benzyloxy)phenyl)-1 H-pyrrolo[2,3-b]pyridin-4-yl)-1 H-indazol-3-amine]	
	3.35 µM	27 µL/min/1e6 cells			> 80%	Nc1n[nH]c2ccc(-c3ccnc4[nH]c(-c5ccnc(OCc6ccccc6)c5)cc34)cc12 [6g SU1349, 5-(2-(2-(Benzyloxy)pyridin-4-yl)-1 H-pyrrolo[2,3-b]pyridin-4-yl)-1 H-indazol-3-amine]	significantly reduced off-target inhibition
